Assay results from PubChem BioAssay AID1963420 (Molecular Pharmacology Branch, DTP, NCI, 2024).

Tested on: 494315-158-R-J1-PDC complex spheroid growth, percent test/control
Assay: Anticancer human tumor 494315-158-R-J1-PDC patient-derived soft tissue sarcoma cell line growth inhibition [Asc]
Conditions: for IC50: curve of first compound; for viability, T/C: stronger effect = lower value
Experimental: Multicellular complex tumor spheroid response to apoptosis pathway targeting inhibitors Alrizomadlin, Pelcitoclax, and Dasminapant in combination with a variety of drugs and investigational agents in selected tumor cell lines
The MDM2 inhibitor alrizomadlin, the Bcl-2/Bcl-xL inhibitor pelcitoclax, and the IAPs inhibitor dasminapant were evaluated both individually and in combination with standard of care and investigational anticancer small molecules within a complex spheroid model of solid tumors. . Complex spheroids include a stromal component modeled by human endothelial cells (HUVEC) and fibroblasts modeled by human mesenchymal stem cells (MSCs). The concentration ranges selected for each drug and investigational agent were based upon clinically achievable concentrations if the clinical Cmax of the agent was known.
Compounds. The drugs and investigational agents: alrizomadlin (APG-115; NSC831270), pelcitoclax (APG-1252; NSC835773), dasminapant (APG-1387;NSC834197), TAK-243 (NSC785004), copanlisib (NSC809693), olaparib (NSC753686), talazoparib (NSC767125), cobimetinib (NSC 768068), eltanexor (KPT-8602, NSC 794443), abemaciclib (NSC 768073), sotorasib (NSC818433), adagrasib (NSC 831453), MRTX-1133 (NSC 836407), Iadademestat (ORY1001, NSC 806812), and RMC-4630 (NSC839698), were obtained from the NCI Developmental Therapeutics Program Chemical Repository. The FDA-approved anticancer drug set is available from the Developmental Therapeutics Program at https://dtp.cancer.gov/organization/dscb/obtaining/available plates.htm. […] The stock solutions were prepared in dimethyl sulfoxide (DMSO, Sigma-Aldrich, St. Louis, MO, cat. D2650) at 800-fold the tested concentration and stored at -70 degrees C prior to their use. All drugs and investigational agents were tested over a range starting from a high concentration at or near the clinical Cmax and decreasing in half-log increments. If the clinical Cmax for an agent had not been determined, the highest concentration tested was 10 microM.
The patient-derived cancer (PDC) cell lines include five colon adenocarcinomas: 186277-243-T-J2-PDC, 616215-338-R-J1-PDC, 439559-082-T-J2-PDC, 463943-066-T-J2-PDC, and 519858-162-T-J1-PDC; three pancreatic carcinomas: 323965-272-R-J2-PDC, 521955-158-R6-J3-PDC, and 521955-158-R2-J5-PDC; two uterine sarcomas: 327498-152-R-J2-PDC and 993429-296-R-J1-PDC; two rhabdomyosarcomas: 755483-174-R-J1-PDC and 772245-204-R-J1-PDC; two soft tissue sarcomas: 126254-015-R-J1-PDC and 494315-158-R-J1-PDC; two malignant fibrous histiocytomas: 317291-083-R-J1-PDC and 596521-263-R-J1-PDC; two breast carcinomas: 171881-019-R-J1-PDC and 885512-296-R-J2-PDC; and one ovarian carcinoma: 6556581-035-R-J-PDC were obtained from the NCI PDMR, (https://pdmr.cancer.gov). The established cell lines HSSY-2 synovial sarcoma (RRID:CVCL 8719), SYO-1 synovial sarcoma (RRID:CVCL_7146), MPNST malignant peripheral neural sheath tumor were obtained from the Sloan Kettering Institute. The following established cell lines were purchased from the American Type Culture Collection (ATCC, Manassas, VA), Sor the received from the NCI repository:, PANC-1 pancreatic carcinoma (CRL-1469, RRID:CVCL_0480), OVCAR-5 ovarian carcinoma (RRID:CVCL_1628), OVCAR-8 ovarian carcinoma (RRID:CVCL_1629), , MCF-7 breast carcinoma (CRL-12584, RRID:CVCL_0031), MDA-MB-231 breast carcinoma (CRL-12532, RRID:CVCL_0062), NCI-H1876 small cell lung carcinoma (CRL-5902, RRID:CVCL_1503), NCI-H510A small cell lung carcinoma (HTB-184, RRID:CVCL_1565), NCI-H1417 (CRL-5869, RRID:CVCL_1469), and NCI-H196 small cell lung carcinoma (CRL-5823, RRID:CVCL_1509). Dr. Peter Houghton (Greehey Children's Cancer Research Institute, University of Texas Health Science Center, San Antonio, TX) provided Rh-18 rhabdomyosarcoma (RRID:CVCL_1659). Pooled donor human umbilical vein endothelial cells (HUVEC, Lonza, cat. CC-2519) and human mesenchymal stem cells (hMSC, Lonza, cat. PT-2501) were purchased from Lonza (Walkersville, MD).
Cell Culture. […]

[1] = second compound 0.03 µM, first compound 0.0316 µM
[2] = second compound 0.03 µM, first compound 0.1 µM
[3] = second compound 0.0949 µM, first compound 0.0316 µM
[4] = second compound 0.0949 µM, first compound 0.1 µM
[5] = second compound 0.3 µM, first compound 0.0316 µM
[6] = second compound 0.3 µM, first compound 0.1 µM
[7] = second compound 0.949 µM, first compound 0.0316 µM
[8] = second compound 0.949 µM, first compound 0.1 µM
[9] = second compound 3 µM, first compound 0.0316 µM
[10] = second compound 3 µM, first compound 0.1 µM
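Note: compound exposure lasted seven days after spheroids formed for three days.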

In the case of `Cn1ncnc1[C@H]1c2n[nH]c(=O)c3cc(F)cc(c23)N[C@@H]1c1ccc(F)cc1` + CCN1C(C(=O)NC23CCC(C(=O)O)(CC2)CC3)C(c2cccc(Cl)c2F)C2(C(=O)Nc3cc(Cl)ccc32)C12CCCCC2, the IC50 (second compound 0.03 µM) is reported as > 0.1 µM, the IC50 (second compound 0.0949 µM) is reported as > 0.1 µM and the IC50 (second compound 0.3 µM) is reported as > 0.1 µM. The IC50 (second compound 0.949 µM) was > 0.1 µM, the IC50 (second compound 3 µM) was > 0.1 µM and the viability, T/C (second compound 0.03 µM, first compound 0.000316 µM) was 104%. For the same compound, the viability, T/C (second compound 0.03 µM, first compound 0.001 µM) was 101%, the viability, T/C (second compound 0.03 µM, first compound 0.00316 µM) was 86.8% and the viability, T/C (second compound 0.03 µM, first compound 0.01 µM) was 78.9%. For the same compound, the viability, T/C [1] was 76.3%, the viability, T/C [2] was 57% and the viability, T/C (second compound 0.0949 µM, first compound 0.000316 µM) was 108%. For the same compound, the viability, T/C (second compound 0.0949 µM, first compound 0.001 µM) was 93.4%, the viability, T/C (second compound 0.0949 µM, first compound 0.00316 µM) was 87.1% and the viability, T/C (second compound 0.0949 µM, first compound 0.01 µM) was 66.3%. It also gave a viability, T/C [3] of 64.6%, a viability, T/C [4] of 58.2% and a viability, T/C (second compound 0.3 µM, first compound 0.000316 µM) of 81.8%. The viability, T/C (second compound 0.3 µM, first compound 0.001 µM) was 94.3%, the viability, T/C (second compound 0.3 µM, first compound 0.00316 µM) was 75.5% and the viability, T/C (second compound 0.3 µM, first compound 0.01 µM) was 76.2%. For the same compound, the viability, T/C [5] was 62.9%, the viability, T/C [6] was 76.3% and the viability, T/C (second compound 0.949 µM, first compound 0.000316 µM) was 95.3%. It also gave a viability, T/C (second compound 0.949 µM, first compound 0.001 µM) of 80.1%, a viability, T/C (second compound 0.949 µM, first compound 0.00316 µM) of 78.4% and a viability, T/C (second compound 0.949 µM, first compound 0.01 µM) of 64%. The viability, T/C [7] was 73.5%, the viability, T/C [8] was 72.1% and the viability, T/C (second compound 3 µM, first compound 0.000316 µM) was 105%. For the same compound, the viability, T/C (second compound 3 µM, first compound 0.001 µM) was 92.3%, the viability, T/C (second compound 3 µM, first compound 0.00316 µM) was 67.9% and the viability, T/C (second compound 3 µM, first compound 0.01 µM) was 70.9%. It also gave a viability, T/C [9] of 54.7% and a viability, T/C [10] of 74.2%.

For `O=C(c1cc(Cc2n[nH]c(=O)c3ccccc23)ccc1F)N1CCN(C(=O)C2CC2)CC1` + CCN1C(C(=O)NC23CCC(C(=O)O)(CC2)CC3)C(c2cccc(Cl)c2F)C2(C(=O)Nc3cc(Cl)ccc32)C12CCCCC2, the IC50 (second compound 0.03 µM) was > 10 µM, the IC50 (second compound 0.0949 µM) was > 10 µM and the IC50 (second compound 0.3 µM) was > 10 µM. For the same compound, the IC50 (second compound 0.949 µM) was > 10 µM, the IC50 (second compound 3 µM) was > 10 µM and the viability, T/C [1] was 97.3%. The viability, T/C [2] was 109%, the viability, T/C (second compound 0.03 µM, first compound 0.316 µM) was 94% and the viability, T/C (second compound 0.03 µM, first compound 1 µM) was 94.6%. It also gave a viability, T/C (second compound 0.03 µM, first compound 3.16 µM) of 80.4%, a viability, T/C (second compound 0.03 µM, first compound 10 µM) of 51.2% and a viability, T/C [3] of 107%. For the same compound, the viability, T/C [4] was 107%, the viability, T/C (second compound 0.0949 µM, first compound 0.316 µM) was 96.8% and the viability, T/C (second compound 0.0949 µM, first compound 1 µM) was 93.8%. The viability, T/C (second compound 0.0949 µM, first compound 3.16 µM) was 74.3%, the viability, T/C (second compound 0.0949 µM, first compound 10 µM) was 50.4% and the viability, T/C [5] was 97.6%. The viability, T/C [6] was 103%, the viability, T/C (second compound 0.3 µM, first compound 0.316 µM) was 95.2% and the viability, T/C (second compound 0.3 µM, first compound 1 µM) was 79.1%. It also gave a viability, T/C (second compound 0.3 µM, first compound 3.16 µM) of 74.5%, a viability, T/C (second compound 0.3 µM, first compound 10 µM) of 53% and a viability, T/C [7] of 109%. It also gave a viability, T/C [8] of 90.2%, a viability, T/C (second compound 0.949 µM, first compound 0.316 µM) of 92.5% and a viability, T/C (second compound 0.949 µM, first compound 1 µM) of 95.9%. For the same compound, the viability, T/C (second compound 0.949 µM, first compound 3.16 µM) was 73.9%, the viability, T/C (second compound 0.949 µM, first compound 10 µM) was 52% and the viability, T/C [9] was 90.3%. It also gave a viability, T/C [10] of 83.9%, a viability, T/C (second compound 3 µM, first compound 0.316 µM) of 85% and a viability, T/C (second compound 3 µM, first compound 1 µM) of 91.9%. For the same compound, the viability, T/C (second compound 3 µM, first compound 3.16 µM) was 81.9% and the viability, T/C (second compound 3 µM, first compound 10 µM) was 51%.
